# Reference: article PMC12668310, “High‐Throughput Synthesis and Screening of a Cyanimide Library Identifies Selective Inhibitors of ISG15‐Specific Protease mUSP18” (Angewandte Chemie (International Ed. in English), 2025)
# Target: T1, Flag-mUSP18 (Mus musculus, UniProt Q9WTV6)
# T1 construct: expressed in transfected cells; host or cells: HEK293T
# T1 sequence (Q9WTV6 1-368): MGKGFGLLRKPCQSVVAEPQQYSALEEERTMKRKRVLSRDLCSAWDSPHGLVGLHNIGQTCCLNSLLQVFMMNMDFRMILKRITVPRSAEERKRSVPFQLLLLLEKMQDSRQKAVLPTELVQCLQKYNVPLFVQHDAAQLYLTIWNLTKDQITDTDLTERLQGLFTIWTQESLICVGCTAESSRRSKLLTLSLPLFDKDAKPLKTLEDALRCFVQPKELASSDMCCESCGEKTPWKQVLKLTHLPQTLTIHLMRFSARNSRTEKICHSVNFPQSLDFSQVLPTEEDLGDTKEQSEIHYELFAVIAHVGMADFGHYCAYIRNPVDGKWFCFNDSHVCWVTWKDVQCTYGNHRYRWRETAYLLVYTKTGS
# Assay: Gel-based ABPP with Rho-mISG15ct-PA probe in HEK293T cells overexpressing Flag-mUSP18
# Type: cell-based, murine
# Conditions: live HEK293T cells, Flag-mUSP18, 4 h treatment
# Protocol: To assess the cellular target engagement and cell permeability of these inhibitors, we performed activity‐based protein profiling. […] Following washing and cell lysis, cell extracts were incubated with a Rhodamine‐tagged murine ISG15 C‐terminal domain propargylamide activity‐based probe (Rho‐mISG15ct‐PA), which covalently labels the active site cysteine of active deISGylating enzymes.^[ [41] ^] The labelled enzymes were resolved by SDS‐PAGE and imaged by in‐gel fluorescence, where inhibition of USP18 is reflected by disappearance of the USP18‐probe‐labelled bands around 55 kDa (Figures 6a, S11A). All three inhibitors engaged with cellular mUSP18 in a dose‐dependent manner, with BB07CA902 and BB07CA28 showing efficient inhibition already at 1 µM concentration. […] The in‐cell selectivity of these inhibitors for USP18 over DUBs was confirmed in a similar ABPP experiment using a Rhodamine‐tagged ubiquitin propargylamide probe (Rho‐Ub‐PA),^[ [42] ^] which labels the active site cysteine of all active cysteine DUBs.
# Figure 6 Inhibition of murine USP18 activity in living cells. a) Gel‐based ABPP potency assessment using a Rho‐mISG15ct‐PA probe in HEK293T cells overexpressing Flag‐mUSP18. At 24 h following transfection, cells were incubated with DMSO or increasing concentrations of indicated inhibitors for 4 h, lysed, and treated with Rho‐mISG15ct‐PA probe. Top panel: fluorescence scan. Middle panel: anti‐Flag western blot. Bottom panel: anti‐GAPDH western blot confirms equal loading. b) Accumulation of ISGylation in mouse IFN‐β‐stimulated EL4 cells. At 24 h following mouse IFN‐β treatment, cells were incubated with DMSO or increasing concentrations of indicated inhibitors for 4 h, lysed, and treated with Rho‐mISG15ct‐PA probe. […] Middle panel: fluorescence scan. […]
# Samples were then diluted 3-fold with water and analyzed by mass spectrometry by injecting 2 μL into a Waters XEVO-G2 XS Q-TOF mass spectrometer equipped with an electrospray ion source in positive mode (capillary voltage 1.2 kV, desolvation gas flow 900 L/h, T = 60 °C) with a resolution of R = 26,000. […]
row,Compound,concentration at which inhibition of mUSP18 probe labelling is observed
1,Cc1cc(C(=O)N[C@H]2C[C@@H]3CN(C#N)C[C@@H]3C2)ccc1C(C)C [BB07CA902],≤ 1 µM
2,Cc1cc(C(=O)N[C@H]2C[C@@H]3CN(C#N)C[C@@H]3C2)ccc1Br [BB07CA28],≤ 1 µM
